Tested on: Monocotyledonous and dicotyledonous test plants
Test: Herbicidal action, application pre-emergence
Assay type: in vivo
Set-up: key: 10=total damage to plant; 0=no damage to plant
Settings: spray solution 1000 mg/l, scale 0-10; for Herbicidal action (damage score) AGSTE: Agrostis tenius; for Herbicidal action (damage score) AMARE: Amaranthus retroflexus; for Herbicidal action (damage score) DIGSA: Digitaria sanguinalis; for Herbicidal action (damage score) POATR: Poa trivialis; for Herbicidal action (damage score) SETFA: Setaria faberi; for Herbicidal action (damage score) SETIT: Setaria italica
Procedure: Monocotyledonous and dicotyledonous test plants were sown in sterilised standard soil in seed trays each having 96 cells. After one day (pre-emergence) or after 8 to 9 days cultivation (post-emergence) under controlled conditions in a climatic chamber (cultivation at 23/17° C., day/night; 13 hours light; 50-60% humidity; after application at 24/19° C., day/night), the plants were treated with an aqueous spray solution of 1000 mg/l of the active ingredient used (incl. 10% DMSO as solvent). The plants were grown on in the climatic chamber until the test was evaluated (10=total damage to plant, 0=no damage to plant) after 9 or 13 days.

## COCCn1nc(C(F)[S+]([O-])C2=NOC(C)(C)C2)c(C(F)(F)F)n1 (mixture of isomers) [1.24]
  Herbicidal action (damage score) AGSTE: 10
  Herbicidal action (damage score) AMARE: 10
  Herbicidal action (damage score) DIGSA: 10
  Herbicidal action (damage score) POATR: 10
  Herbicidal action (damage score) SETFA: 9

## CC1(C)CC([S+]([O-])C(F)c2nn(C3CCCC3)nc2C(F)(F)F)=NO1 (mixture of isomers) [1.30]
  Herbicidal action (damage score) AGSTE: 10
  Herbicidal action (damage score) AMARE: 10
  Herbicidal action (damage score) DIGSA: 9
  Herbicidal action (damage score) POATR: 10
  Herbicidal action (damage score) SETFA: 8

## C=CCn1nc(C(F)[S+]([O-])C2=NOC(C)(C)C2)c(C(F)(F)F)n1 (mixture of isomers) [1.33]
  Herbicidal action (damage score) AGSTE: 10
  Herbicidal action (damage score) AMARE: 4
  Herbicidal action (damage score) DIGSA: 10
  Herbicidal action (damage score) POATR: 10
  Herbicidal action (damage score) SETFA: 6

## CCn1ncc(C(F)[S+]([O-])C2=NOC(C)(C)C2)n1 (mixture of isomers) [1.39]
  Herbicidal action (damage score) AGSTE: 10
  Herbicidal action (damage score) AMARE: 9
  Herbicidal action (damage score) DIGSA: 9
  Herbicidal action (damage score) POATR: 10
  Herbicidal action (damage score) SETFA: 9

## CC1(C)CC([S+]([O-])C(F)c2cn(C(C)(C)C)nn2)=NO1 (mixture of isomers) [Compound No. 2.03]
  Herbicidal action (damage score) AGSTE: 8
  Herbicidal action (damage score) AMARE: 2
  Herbicidal action (damage score) DIGSA: 9
  Herbicidal action (damage score) POATR: 4
  Herbicidal action (damage score) SETFA: 5

## Cn1nnc(Br)c1C(F)[S+]([O-])C1=NOC(C)(C)C1 (mixture of isomers) [Compound No. 3.05]
  Herbicidal action (damage score) AGSTE: 10
  Herbicidal action (damage score) AMARE: 8
  Herbicidal action (damage score) DIGSA: 10
  Herbicidal action (damage score) POATR: 10
  Herbicidal action (damage score) SETFA: 9

## Cn1nc(C(F)(F)F)c(C(F)(Cl)S(=O)(=O)C2=NOC(C)(C)C2)n1 (racemic) [1.10]
  Herbicidal action (damage score) AGSTE: 10
  Herbicidal action (damage score) AMARE: 10
  Herbicidal action (damage score) DIGSA: 10
  Herbicidal action (damage score) POATR: 10
  Herbicidal action (damage score) SETIT: 10

## CCc1nn(CC)nc1C(F)S(=O)(=O)C1=NOC(C)(C)C1 (racemic) [1.12]
  Herbicidal action (damage score) AGSTE: 10
  Herbicidal action (damage score) AMARE: 10
  Herbicidal action (damage score) DIGSA: 9
  Herbicidal action (damage score) POATR: 10
  Herbicidal action (damage score) SETFA: 9

## CC(C)n1nc(C(F)(F)F)c(C(F)(F)[S+]([O-])C2=NOC(C)(C)C2)n1 (racemic) [1.18]
  Herbicidal action (damage score) AGSTE: 10
  Herbicidal action (damage score) AMARE: 10
  Herbicidal action (damage score) DIGSA: 10
  Herbicidal action (damage score) POATR: 10
  Herbicidal action (damage score) SETFA: 9

## Cc1nn(C(F)F)nc1C(F)(F)[S+]([O-])C1=NOC(C)(C)C1 (racemic) [1.22]
  Herbicidal action (damage score) AGSTE: 10
  Herbicidal action (damage score) AMARE: 10
  Herbicidal action (damage score) DIGSA: 10
  Herbicidal action (damage score) POATR: 10
  Herbicidal action (damage score) SETFA: 9

## COCCn1nc(C(F)(F)F)c(C(F)(F)[S+]([O-])C2=NOC(C)(C)C2)n1 (racemic) [1.25]
  Herbicidal action (damage score) AGSTE: 10
  Herbicidal action (damage score) AMARE: 10
  Herbicidal action (damage score) DIGSA: 10
  Herbicidal action (damage score) POATR: 10
  Herbicidal action (damage score) SETFA: 9

## CCc1nn(C)nc1C(F)(F)[S+]([O-])C1=NOC(C)(C)C1 (racemic) [1.27]
  Herbicidal action (damage score) AGSTE: 10
  Herbicidal action (damage score) AMARE: 10
  Herbicidal action (damage score) DIGSA: 10
  Herbicidal action (damage score) POATR: 10
  Herbicidal action (damage score) SETFA: 9

## CC1(C)CC(S(=O)(=O)C(F)c2nn(C3CCCC3)nc2C(F)(F)F)=NO1 (racemic) [1.28]
  Herbicidal action (damage score) AGSTE: 10
  Herbicidal action (damage score) AMARE: 9
  Herbicidal action (damage score) DIGSA: 9
  Herbicidal action (damage score) POATR: 10
  Herbicidal action (damage score) SETFA: 8

## CC1(C)CC([S+]([O-])C(F)(F)c2nn(C3CCCC3)nc2C(F)(F)F)=NO1 (racemic) [1.31]
  Herbicidal action (damage score) AGSTE: 10
  Herbicidal action (damage score) AMARE: 0
  Herbicidal action (damage score) DIGSA: 9
  Herbicidal action (damage score) POATR: 7
  Herbicidal action (damage score) SETFA: 9

## C=CCn1nc(C(F)(F)F)c(C(F)(F)[S+]([O-])C2=NOC(C)(C)C2)n1 (racemic) [1.34]
  Herbicidal action (damage score) AGSTE: 10
  Herbicidal action (damage score) AMARE: 9
  Herbicidal action (damage score) DIGSA: 10
  Herbicidal action (damage score) POATR: 10
  Herbicidal action (damage score) SETFA: 10

## Cc1nn(C)nc1C(F)(Cl)S(=O)(=O)C1=NOC(C)(C)C1 (racemic) [Compound No. 1.07]
  Herbicidal action (damage score) AGSTE: 10
  Herbicidal action (damage score) AMARE: 9
  Herbicidal action (damage score) DIGSA: 10
  Herbicidal action (damage score) POATR: 10
  Herbicidal action (damage score) SETIT: 9

## Cn1nc(C(F)S(=O)(=O)C2=NOC(C)(C)C2)c(C(F)(F)F)n1 (racemic) [Compound No. 1.11]
  Herbicidal action (damage score) AGSTE: 10
  Herbicidal action (damage score) AMARE: 10
  Herbicidal action (damage score) DIGSA: 10
  Herbicidal action (damage score) POATR: 10
  Herbicidal action (damage score) SETIT: 10

## CCn1nc(C(F)(F)F)c(C(F)(F)[S+]([O-])C2=NOC(C)(C)C2)n1 (racemic) [Compound No. 1.16]
  Herbicidal action (damage score) AGSTE: 10
  Herbicidal action (damage score) AMARE: 10
  Herbicidal action (damage score) DIGSA: 10
  Herbicidal action (damage score) POATR: 10
  Herbicidal action (damage score) SETFA: 9

## Cc1nn(C(F)F)nc1C(F)S(=O)(=O)C1=NOC(C)(C)C1 (racemic) [Compound No. 1.19]
  Herbicidal action (damage score) AGSTE: 10
  Herbicidal action (damage score) AMARE: 10
  Herbicidal action (damage score) DIGSA: 10
  Herbicidal action (damage score) POATR: 10
  Herbicidal action (damage score) SETFA: 10

## Cc1nn(C(F)F)nc1C(F)[S+]([O-])C1=NOC(C)(C)C1 (racemic) [Compound No. 1.21]
  Herbicidal action (damage score) AGSTE: 10
  Herbicidal action (damage score) AMARE: 10
  Herbicidal action (damage score) DIGSA: 10
  Herbicidal action (damage score) POATR: 10
  Herbicidal action (damage score) SETFA: 10

## Cn1nc(C(F)(F)F)c(C(F)(F)S(=O)(=O)C2=NOC(C)(C)C2)n1 [1.09]
  Herbicidal action (damage score) AGSTE: 10
  Herbicidal action (damage score) AMARE: 10
  Herbicidal action (damage score) DIGSA: 10
  Herbicidal action (damage score) POATR: 10
  Herbicidal action (damage score) SETIT: 10

## CCn1nc(C(F)(F)F)c(C(F)(F)S(=O)(=O)C2=NOC(C)(C)C2)n1 [1.15]
  Herbicidal action (damage score) AGSTE: 10
  Herbicidal action (damage score) AMARE: 10
  Herbicidal action (damage score) DIGSA: 10
  Herbicidal action (damage score) POATR: 10
  Herbicidal action (damage score) SETFA: 10

## CC(C)n1nc(C(F)(F)F)c(C(F)(F)S(=O)(=O)C2=NOC(C)(C)C2)n1 [1.17]
  Herbicidal action (damage score) AGSTE: 10
  Herbicidal action (damage score) AMARE: 10
  Herbicidal action (damage score) DIGSA: 9
  Herbicidal action (damage score) POATR: 10
  Herbicidal action (damage score) SETFA: 10

## Cc1nn(C(F)F)nc1C(F)(F)S(=O)(=O)C1=NOC(C)(C)C1 [1.20]
  Herbicidal action (damage score) AGSTE: 10
  Herbicidal action (damage score) AMARE: 10
  Herbicidal action (damage score) DIGSA: 10
  Herbicidal action (damage score) POATR: 10
  Herbicidal action (damage score) SETFA: 9

## COCCn1nc(C(F)(F)F)c(C(F)(F)S(=O)(=O)C2=NOC(C)(C)C2)n1 [1.23]
  Herbicidal action (damage score) AGSTE: 10
  Herbicidal action (damage score) AMARE: 10
  Herbicidal action (damage score) DIGSA: 10
  Herbicidal action (damage score) POATR: 10
  Herbicidal action (damage score) SETFA: 10

## CCc1nn(C)nc1C(F)(F)S(=O)(=O)C1=NOC(C)(C)C1 [1.26]
  Herbicidal action (damage score) AGSTE: 10
  Herbicidal action (damage score) AMARE: 10
  Herbicidal action (damage score) DIGSA: 10
  Herbicidal action (damage score) POATR: 10
  Herbicidal action (damage score) SETFA: 10

## CC1(C)CC(S(=O)(=O)C(F)(F)c2nn(C3CCCC3)nc2C(F)(F)F)=NO1 [1.29]
  Herbicidal action (damage score) AGSTE: 10
  Herbicidal action (damage score) AMARE: 8
  Herbicidal action (damage score) DIGSA: 9
  Herbicidal action (damage score) POATR: 6
  Herbicidal action (damage score) SETFA: 9

## C=CCn1nc(C(F)(F)F)c(C(F)(F)S(=O)(=O)C2=NOC(C)(C)C2)n1 [1.32]
  Herbicidal action (damage score) AGSTE: 10
  Herbicidal action (damage score) AMARE: 10
  Herbicidal action (damage score) DIGSA: 10
  Herbicidal action (damage score) POATR: 10
  Herbicidal action (damage score) SETFA: 10

## Cn1ncc(C(F)(F)S(=O)(=O)C2=NOC(C)(C)C2)n1 [1.35]
  Herbicidal action (damage score) AGSTE: 10
  Herbicidal action (damage score) AMARE: 10
  Herbicidal action (damage score) DIGSA: 9
  Herbicidal action (damage score) POATR: 10
  Herbicidal action (damage score) SETFA: 9

## Cn1ncc(C(F)(F)[S+]([O-])C2=NOC(C)(C)C2)n1 (stereo not shown) [1.36]
  Herbicidal action (damage score) AGSTE: 10
  Herbicidal action (damage score) AMARE: 9
  Herbicidal action (damage score) DIGSA: 10
  Herbicidal action (damage score) POATR: 10
  Herbicidal action (damage score) SETFA: 9

## CCn1ncc(C(F)S(=O)(=O)C2=NOC(C)(C)C2)n1 (stereo not shown) [1.37]
  Herbicidal action (damage score) AGSTE: 10
  Herbicidal action (damage score) AMARE: 10
  Herbicidal action (damage score) DIGSA: 9
  Herbicidal action (damage score) POATR: 10
  Herbicidal action (damage score) SETFA: 9

## CCn1ncc(C(F)(F)S(=O)(=O)C2=NOC(C)(C)C2)n1 [1.38]
  Herbicidal action (damage score) AGSTE: 10
  Herbicidal action (damage score) AMARE: 10
  Herbicidal action (damage score) DIGSA: 9
  Herbicidal action (damage score) POATR: 10
  Herbicidal action (damage score) SETFA: 9
